# Measurements taken from the kinase profiling compilation of Christmann-Franck et al. (2016).
# Key:
# Assay in all cases: radiometric filter-binding kinase assay
# [1] = system: AKT2 (human), P31751 [S474D]
# AURKB (human) = AURKB (human) (UniProt Q96GD4)
# CAMKK2 (human) = CAMKK2 (human) (UniProt Q96RR4)
# CHEK1 (human) = CHEK1 (human) (UniProt O14757)
# CHEK2 (human) = CHEK2 (human) (UniProt O96017)
# EPHB4 (human) = EPHB4 (human) (UniProt P54760)
# GCK (human) = GCK (human) (UniProt Q12851)
# IGF1R (human) = IGF1R (human) (UniProt P08069)
# IKBKB (human) = IKBKB (human) (UniProt O14920)
# IKBKB (human), sequence (O14920 whole entry, looked up): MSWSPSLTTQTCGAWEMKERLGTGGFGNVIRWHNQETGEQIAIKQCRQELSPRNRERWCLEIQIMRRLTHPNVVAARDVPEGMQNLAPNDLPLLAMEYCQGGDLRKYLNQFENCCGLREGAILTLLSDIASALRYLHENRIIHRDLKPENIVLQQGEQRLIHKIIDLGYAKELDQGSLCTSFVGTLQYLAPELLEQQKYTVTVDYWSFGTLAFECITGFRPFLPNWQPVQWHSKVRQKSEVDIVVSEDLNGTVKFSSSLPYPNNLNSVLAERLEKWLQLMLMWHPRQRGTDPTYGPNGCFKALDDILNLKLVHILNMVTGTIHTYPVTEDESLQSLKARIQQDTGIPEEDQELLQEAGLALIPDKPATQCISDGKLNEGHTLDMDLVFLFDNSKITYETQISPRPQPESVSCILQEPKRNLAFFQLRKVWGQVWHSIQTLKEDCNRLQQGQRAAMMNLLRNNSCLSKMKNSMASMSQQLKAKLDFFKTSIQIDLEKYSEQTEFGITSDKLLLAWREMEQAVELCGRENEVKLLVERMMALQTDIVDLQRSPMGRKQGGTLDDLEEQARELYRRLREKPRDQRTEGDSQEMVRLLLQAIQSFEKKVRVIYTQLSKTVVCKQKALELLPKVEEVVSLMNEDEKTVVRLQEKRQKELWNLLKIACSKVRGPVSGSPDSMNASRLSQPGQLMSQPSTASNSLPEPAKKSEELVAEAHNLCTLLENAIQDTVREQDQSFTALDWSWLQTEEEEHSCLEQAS
# MAP2K1 (human) = MAP2K1 (human) (UniProt Q02750)
# MAP3K1 (human) = MAP3K1 (human) (UniProt Q13233)
# MAP3K5 (human) = MAP3K5 (human) (UniProt Q99683)
# MAPK1 (human) = MAPK1 (human) (UniProt P28482)
# MAPK10 (human) = MAPK10 (human) (UniProt P53779)
# MAPK15 (human) = MAPK15 (human) (UniProt Q8TD08)
# MAPK15 (human), sequence (Q8TD08 whole entry, looked up): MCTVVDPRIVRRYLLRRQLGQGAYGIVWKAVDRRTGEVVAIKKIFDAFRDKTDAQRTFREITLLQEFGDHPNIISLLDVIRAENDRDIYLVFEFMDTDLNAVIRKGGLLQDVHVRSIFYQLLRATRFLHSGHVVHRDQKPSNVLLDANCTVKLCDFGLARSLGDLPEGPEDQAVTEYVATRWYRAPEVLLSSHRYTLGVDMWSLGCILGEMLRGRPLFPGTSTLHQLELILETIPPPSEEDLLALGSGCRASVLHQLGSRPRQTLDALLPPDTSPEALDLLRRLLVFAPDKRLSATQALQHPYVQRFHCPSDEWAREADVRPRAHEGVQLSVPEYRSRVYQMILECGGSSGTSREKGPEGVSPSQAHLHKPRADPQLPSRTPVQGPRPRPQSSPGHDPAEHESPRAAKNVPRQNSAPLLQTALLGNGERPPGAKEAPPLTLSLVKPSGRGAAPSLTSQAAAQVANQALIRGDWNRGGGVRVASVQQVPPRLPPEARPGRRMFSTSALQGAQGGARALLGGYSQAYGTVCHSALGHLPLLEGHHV
# MAPK3 (human) = MAPK3 (human) (UniProt P27361)
# MAPK3 (human), sequence (P27361 whole entry, looked up): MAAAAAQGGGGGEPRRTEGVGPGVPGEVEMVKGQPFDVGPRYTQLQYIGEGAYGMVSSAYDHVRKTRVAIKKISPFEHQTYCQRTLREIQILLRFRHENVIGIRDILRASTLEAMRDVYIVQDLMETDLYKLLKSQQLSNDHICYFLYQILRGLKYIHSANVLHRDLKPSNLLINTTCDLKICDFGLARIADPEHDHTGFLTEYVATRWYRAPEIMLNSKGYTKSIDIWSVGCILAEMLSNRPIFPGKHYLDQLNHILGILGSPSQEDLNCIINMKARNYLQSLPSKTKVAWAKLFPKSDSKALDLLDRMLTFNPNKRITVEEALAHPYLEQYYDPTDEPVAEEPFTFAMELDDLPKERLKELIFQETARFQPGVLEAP
# MAPK9 (human) = MAPK9 (human) (UniProt P45984)
# MAPKAPK2 (human) = MAPKAPK2 (human) (UniProt P49137)
# MAPKAPK2 (human), sequence (P49137 whole entry, looked up): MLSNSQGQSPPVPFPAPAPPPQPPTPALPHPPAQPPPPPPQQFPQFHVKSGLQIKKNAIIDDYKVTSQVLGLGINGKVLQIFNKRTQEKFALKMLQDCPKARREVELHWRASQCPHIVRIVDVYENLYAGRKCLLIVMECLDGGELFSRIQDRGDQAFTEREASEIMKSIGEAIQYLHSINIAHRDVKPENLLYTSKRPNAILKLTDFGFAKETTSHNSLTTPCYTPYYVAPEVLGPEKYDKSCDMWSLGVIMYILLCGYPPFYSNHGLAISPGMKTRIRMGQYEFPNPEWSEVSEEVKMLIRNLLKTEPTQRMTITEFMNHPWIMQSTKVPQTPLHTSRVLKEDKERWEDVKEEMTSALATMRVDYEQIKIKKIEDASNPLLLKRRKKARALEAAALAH
# MARK2 (human) = MARK2 (human) (UniProt Q7KZI7)
# MINK1 (human) = MINK1 (human) (UniProt Q8N4C8)
# MINK1 (human), sequence (Q8N4C8 whole entry, looked up): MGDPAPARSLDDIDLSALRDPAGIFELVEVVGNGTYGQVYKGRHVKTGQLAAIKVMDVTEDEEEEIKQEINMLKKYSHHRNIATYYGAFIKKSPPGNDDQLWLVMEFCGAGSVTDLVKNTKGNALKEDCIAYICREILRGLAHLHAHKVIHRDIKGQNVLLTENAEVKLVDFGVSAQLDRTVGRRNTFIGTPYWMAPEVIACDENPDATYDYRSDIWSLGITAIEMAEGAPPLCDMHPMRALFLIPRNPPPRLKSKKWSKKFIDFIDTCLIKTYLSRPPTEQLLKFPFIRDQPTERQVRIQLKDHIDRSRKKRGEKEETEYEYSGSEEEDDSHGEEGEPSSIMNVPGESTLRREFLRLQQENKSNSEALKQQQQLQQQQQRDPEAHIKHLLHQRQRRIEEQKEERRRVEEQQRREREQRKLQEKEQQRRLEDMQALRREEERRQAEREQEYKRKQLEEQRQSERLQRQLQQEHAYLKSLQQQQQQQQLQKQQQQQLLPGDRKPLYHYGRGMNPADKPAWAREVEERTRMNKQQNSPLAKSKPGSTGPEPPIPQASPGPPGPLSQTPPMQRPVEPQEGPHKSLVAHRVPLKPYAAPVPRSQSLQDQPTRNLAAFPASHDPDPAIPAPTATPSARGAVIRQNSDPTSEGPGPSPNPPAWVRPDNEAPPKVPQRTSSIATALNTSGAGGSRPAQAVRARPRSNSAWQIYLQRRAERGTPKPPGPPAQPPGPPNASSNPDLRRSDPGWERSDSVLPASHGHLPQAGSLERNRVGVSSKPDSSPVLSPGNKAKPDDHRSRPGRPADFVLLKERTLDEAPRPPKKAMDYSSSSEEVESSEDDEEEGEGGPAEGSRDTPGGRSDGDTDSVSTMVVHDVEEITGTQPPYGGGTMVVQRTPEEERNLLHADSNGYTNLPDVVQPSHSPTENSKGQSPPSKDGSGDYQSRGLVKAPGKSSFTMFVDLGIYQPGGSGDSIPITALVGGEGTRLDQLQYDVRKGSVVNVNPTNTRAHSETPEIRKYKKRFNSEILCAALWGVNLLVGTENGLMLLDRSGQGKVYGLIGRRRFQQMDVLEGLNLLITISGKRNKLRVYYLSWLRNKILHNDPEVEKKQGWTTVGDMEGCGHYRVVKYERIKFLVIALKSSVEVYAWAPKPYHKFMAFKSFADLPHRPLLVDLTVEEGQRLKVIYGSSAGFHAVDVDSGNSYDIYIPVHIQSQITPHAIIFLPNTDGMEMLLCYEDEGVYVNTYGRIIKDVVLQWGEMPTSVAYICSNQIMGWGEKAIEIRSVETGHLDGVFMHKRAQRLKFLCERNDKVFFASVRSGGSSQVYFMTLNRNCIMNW
# MKNK1 (human) = MKNK1 (human) (UniProt Q9BUB5)
# MKNK2 (human) = MKNK2 (human) (UniProt Q9HBH9)
# NEK2 (human) = NEK2 (human) (UniProt P51955)
# NTRK1 (human) = NTRK1 (human) (UniProt P04629)
# PHKG1 (human) = PHKG1 (human) (UniProt Q16816)
# PIM2 (human) = PIM2 (human) (UniProt Q9P1W9)
# PKN2 (human) = PKN2 (human) (UniProt Q16513)
# PRKAA1 or PRKAA2 (rat) = settings: accession and sequence are those of the human protein
# PRKACA (human) = PRKACA (human) (UniProt P17612)
# PRKCA (human) = PRKCA (human) (UniProt P17252)
# RPS6KA1 KD1 KD2 (human) = RPS6KA1 KD1 KD2 (human) (UniProt Q15418)
# RPS6KA1 KD1 KD2 (human), sequence (Q15418 whole entry, looked up): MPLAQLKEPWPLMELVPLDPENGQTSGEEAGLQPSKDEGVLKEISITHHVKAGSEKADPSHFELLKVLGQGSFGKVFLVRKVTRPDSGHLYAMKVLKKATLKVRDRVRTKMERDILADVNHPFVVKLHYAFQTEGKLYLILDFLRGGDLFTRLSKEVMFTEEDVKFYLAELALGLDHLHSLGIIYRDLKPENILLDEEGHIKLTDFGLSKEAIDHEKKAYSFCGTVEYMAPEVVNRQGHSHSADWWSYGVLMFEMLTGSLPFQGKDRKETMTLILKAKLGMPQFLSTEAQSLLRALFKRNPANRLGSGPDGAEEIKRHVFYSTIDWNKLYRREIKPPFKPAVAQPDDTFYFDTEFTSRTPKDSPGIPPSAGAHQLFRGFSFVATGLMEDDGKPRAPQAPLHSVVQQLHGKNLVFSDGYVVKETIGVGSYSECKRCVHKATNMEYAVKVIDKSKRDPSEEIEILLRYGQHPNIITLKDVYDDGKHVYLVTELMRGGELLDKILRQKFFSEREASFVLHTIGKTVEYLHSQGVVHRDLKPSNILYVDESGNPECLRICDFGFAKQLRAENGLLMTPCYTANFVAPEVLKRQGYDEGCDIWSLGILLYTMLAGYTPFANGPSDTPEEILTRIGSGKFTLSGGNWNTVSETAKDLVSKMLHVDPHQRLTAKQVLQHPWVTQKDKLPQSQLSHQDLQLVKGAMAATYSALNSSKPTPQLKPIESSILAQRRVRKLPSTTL
# SRC (human) = SRC (human) (UniProt P12931)
# [2] = target: STK11 CAB39 STRADA (human) (UniProt Q9Y376+Q7RTN6+Q15831)
# STK3 (human) = STK3 (human) (UniProt Q13188)
# YES1 (human) = YES1 (human) (UniProt P07947)
# CHEK2 (human), sequence (O96017 whole entry, looked up): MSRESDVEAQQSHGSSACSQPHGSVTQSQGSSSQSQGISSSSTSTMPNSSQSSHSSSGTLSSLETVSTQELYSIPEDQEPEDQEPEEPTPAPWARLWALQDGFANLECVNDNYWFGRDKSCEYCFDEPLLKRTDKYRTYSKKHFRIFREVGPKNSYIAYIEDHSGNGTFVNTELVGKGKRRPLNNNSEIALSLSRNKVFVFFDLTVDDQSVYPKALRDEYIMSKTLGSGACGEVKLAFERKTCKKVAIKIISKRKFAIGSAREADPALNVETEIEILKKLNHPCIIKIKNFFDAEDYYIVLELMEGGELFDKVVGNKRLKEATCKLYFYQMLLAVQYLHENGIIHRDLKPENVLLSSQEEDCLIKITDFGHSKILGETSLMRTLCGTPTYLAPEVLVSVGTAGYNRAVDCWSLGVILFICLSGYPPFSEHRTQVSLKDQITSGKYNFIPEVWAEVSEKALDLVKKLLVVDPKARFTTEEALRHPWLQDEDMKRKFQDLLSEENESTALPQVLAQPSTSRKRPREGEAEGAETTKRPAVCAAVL
# AURKB (human), sequence (Q96GD4 whole entry, looked up): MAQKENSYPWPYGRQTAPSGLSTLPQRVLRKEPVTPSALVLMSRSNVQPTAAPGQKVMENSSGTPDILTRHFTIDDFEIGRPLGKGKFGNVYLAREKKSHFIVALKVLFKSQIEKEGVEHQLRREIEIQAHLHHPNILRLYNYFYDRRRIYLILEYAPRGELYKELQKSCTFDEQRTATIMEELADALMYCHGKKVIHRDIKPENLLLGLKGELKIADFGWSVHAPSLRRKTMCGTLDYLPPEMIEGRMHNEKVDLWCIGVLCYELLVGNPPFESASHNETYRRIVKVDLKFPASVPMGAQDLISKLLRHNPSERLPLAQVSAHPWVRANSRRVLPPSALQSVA
compound,measurement,setting,value
N#Cc1c(C2CCNCC2)cc(-c2c(O)cccc2OCC2CC2)nc1N,residual activity,[1]; compound 1.0 µM,85%
same,residual activity,[1]; compound 10.0 µM,62%
same,residual activity,AURKB (human); compound 1.0 µM,67%
same,residual activity,AURKB (human); compound 10.0 µM,42%
same,residual activity,CAMKK2 (human); compound 1.0 µM,106%
same,residual activity,CAMKK2 (human); compound 10.0 µM,57%
same,residual activity,CHEK1 (human); compound 1.0 µM,95%
same,residual activity,CHEK1 (human); compound 10.0 µM,92%
same,residual activity,CHEK2 (human); compound 1.0 µM,60%
same,residual activity,CHEK2 (human); compound 10.0 µM,34%
same,residual activity,EPHB4 (human); compound 1.0 µM,90%
same,residual activity,EPHB4 (human); compound 10.0 µM,86%
same,residual activity,GCK (human); compound 1.0 µM,77%
same,residual activity,GCK (human); compound 10.0 µM,41%
same,residual activity,IGF1R (human); compound 1.0 µM,86%
same,residual activity,IGF1R (human); compound 10.0 µM,35%
same,residual activity,IKBKB (human); compound 1.0 µM,6%
same,residual activity,IKBKB (human); compound 10.0 µM,4%
same,residual activity,MAP2K1 (human); compound 1.0 µM,117%
same,residual activity,MAP2K1 (human); compound 10.0 µM,51%
same,residual activity,MAP3K1 (human); compound 1.0 µM,62%
same,residual activity,MAP3K1 (human); compound 10.0 µM,50%
same,residual activity,MAP3K5 (human); compound 1.0 µM,102%
same,residual activity,MAP3K5 (human); compound 10.0 µM,83%
same,residual activity,MAPK1 (human); compound 1.0 µM,101%
same,residual activity,MAPK1 (human); compound 10.0 µM,76%
same,residual activity,MAPK10 (human); compound 1.0 µM,73%
same,residual activity,MAPK10 (human); compound 10.0 µM,68%
same,residual activity,MAPK15 (human); compound 1.0 µM,59%
same,residual activity,MAPK15 (human); compound 10.0 µM,9%
same,residual activity,MAPK3 (human); compound 1.0 µM,85%
same,residual activity,MAPK3 (human); compound 10.0 µM,80%
same,residual activity,MAPK9 (human); compound 1.0 µM,83%
same,residual activity,MAPK9 (human); compound 10.0 µM,71%
same,residual activity,MAPKAPK2 (human); compound 1.0 µM,115%
same,residual activity,MAPKAPK2 (human); compound 10.0 µM,95%
same,residual activity,MARK2 (human); compound 1.0 µM,89%
same,residual activity,MARK2 (human); compound 10.0 µM,96%
same,residual activity,MINK1 (human); compound 1.0 µM,66%
same,residual activity,MINK1 (human); compound 10.0 µM,52%
same,residual activity,MKNK1 (human); compound 1.0 µM,101%
same,residual activity,MKNK1 (human); compound 10.0 µM,90%
same,residual activity,MKNK2 (human); compound 1.0 µM,113%
same,residual activity,MKNK2 (human); compound 10.0 µM,89%
same,residual activity,NEK2 (human); compound 1.0 µM,85%
same,residual activity,NEK2 (human); compound 10.0 µM,94%
same,residual activity,NTRK1 (human); compound 1.0 µM,68%
same,residual activity,NTRK1 (human); compound 10.0 µM,20%
same,residual activity,PHKG1 (human); compound 1.0 µM,77%
same,residual activity,PHKG1 (human); compound 10.0 µM,59%
same,residual activity,PIM2 (human); compound 1.0 µM,34%
same,residual activity,PIM2 (human); compound 10.0 µM,12%
same,residual activity,PKN2 (human); compound 1.0 µM,94%
same,residual activity,PKN2 (human); compound 10.0 µM,53%
same,residual activity,PRKAA1 or PRKAA2 (rat); compound 1.0 µM,85%
same,residual activity,PRKAA1 or PRKAA2 (rat); compound 10.0 µM,50%
same,residual activity,PRKACA (human); compound 1.0 µM,83%
same,residual activity,PRKACA (human); compound 10.0 µM,95%
same,residual activity,PRKCA (human); compound 1.0 µM,117%
same,residual activity,PRKCA (human); compound 10.0 µM,55%
same,residual activity,RPS6KA1 KD1 KD2 (human); compound 1.0 µM,45%
same,residual activity,RPS6KA1 KD1 KD2 (human); compound 10.0 µM,6%
same,residual activity,SRC (human); compound 1.0 µM,89%
same,residual activity,SRC (human); compound 10.0 µM,68%
same,residual activity,[2]; compound 1.0 µM,78%
same,residual activity,[2]; compound 10.0 µM,65%
same,residual activity,STK3 (human); compound 1.0 µM,83%
same,residual activity,STK3 (human); compound 10.0 µM,34%
same,residual activity,YES1 (human); compound 1.0 µM,79%
same,residual activity,YES1 (human); compound 10.0 µM,38%
